Test results published in US7910102B2 (priority 2006, dated 2011).
Several values for one entry are separate records, joined by “and”; a condition that tells them apart may be missing. Equal entries are not always repeated. Entries after “also recorded” stand apart in the source; their conditions may differ. Bridge positions count the residues as written; N and C are the ends. Square brackets hold non-standard residues; d marks the D form. Ends that are not written are not given here. Peptide text beside a SMILES is read from it. 1Nal = N[C@@H](Cc1cccc2ccccc12)C(=O)O

Legend:
[1] = tested on: IFN-g production in human whole blood; type: cell-based
human Kv1.3 [2] = molecular target: T1, human Kv1.3 (Homo sapiens, UniProt P22001); type: cell-based; parameters: expressed in transfected cells
T1 sequence (P22001 whole entry): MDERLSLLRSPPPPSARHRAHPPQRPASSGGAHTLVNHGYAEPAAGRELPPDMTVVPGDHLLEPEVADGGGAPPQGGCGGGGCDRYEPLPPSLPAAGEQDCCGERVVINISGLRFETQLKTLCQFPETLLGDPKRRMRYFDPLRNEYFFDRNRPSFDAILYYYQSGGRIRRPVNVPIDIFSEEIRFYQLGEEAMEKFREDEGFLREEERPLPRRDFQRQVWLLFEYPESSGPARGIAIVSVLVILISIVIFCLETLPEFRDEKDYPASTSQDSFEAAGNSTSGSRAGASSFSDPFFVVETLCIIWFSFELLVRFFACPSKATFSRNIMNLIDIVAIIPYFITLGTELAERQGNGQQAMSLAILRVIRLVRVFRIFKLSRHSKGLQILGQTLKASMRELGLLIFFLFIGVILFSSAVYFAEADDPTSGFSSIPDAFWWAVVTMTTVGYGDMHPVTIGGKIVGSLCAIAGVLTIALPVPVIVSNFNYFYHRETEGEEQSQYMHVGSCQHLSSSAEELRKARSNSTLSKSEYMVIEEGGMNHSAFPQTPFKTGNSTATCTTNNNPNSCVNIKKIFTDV

[3] = tested on: IL-2 production in human whole blood; type: cell-based
human Kv1.3 [4] = molecular target: T1, human Kv1.3; type: cell-based; conditions: for IC50: read-out: IC50 Sustained
CD40L on CD4+ T cells = type: cell-based, human
IL-2R on CD4+ T cells = type: cell-based, human

## CC[C@H](C)[C@@H]1NC(=O)[C@H](CCCCN)NC(=O)[C@@H](NC(=O)[C@H](CCCCN)NC(=O)[C@@H](NC(=O)[C@H](CC(N)=O)NC(=O)[C@@H](NC(=O)[C@@H](NC(=O)[C@@H](NC(=O)CN)C(C)C)[C@@H](C)CC)[C@@H](C)CC)C(C)C)CSSC[C@@H]2NC(=O)[C@H](CCCCN)NC(=O)CNC(=O)[C@H](Cc3ccccc3)NC(=O)[C@H](CCCNC(=N)N)NC(=O)[C@H](CCSC)NC(=O)CNC(=O)[C@H](C)NC(=O)[C@H](Cc3cccc4ccccc34)NC(=O)[C@H](CCCCN)NC(=O)[C@@H]3CSSC[C@@H](C(=O)N[C@H](C(=O)N4CCC[C@H]4C(=O)N[C@@H](CCCCN)C(=O)O)[C@@H](C)O)NC(=O)[C@H](Cc4c[nH]cn4)NC(=O)[C@H](CSSC[C@H](NC(=O)[C@H](CCC(N)=O)NC(=O)[C@H](CCCNC(=N)N)NC(=O)[C@H](CO)NC1=O)C(=O)N[C@@H](CC(C)C)C(=O)N[C@@H](CCC(=O)O)C(=O)N1CCC[C@H]1C(=O)N3)NC(=O)[C@H](CCCCN)NC(=O)CNC(=O)[C@H](CC(N)=O)NC(=O)[C@H](CCSC)NC2=O [K20Nal] (H-GVIINVKCKISRQCLEPCK[1Nal]AGMRFGKCMNGKCHCTPK-OH; disulfide 8-28, 14-33, 18-35)
[1]; read-out: Analogue Activity (IC50, pM) WB/IFNg
  IC50: 12 pM

## CC[C@H](C)[C@@H]1NC(=O)[C@H](CCCCN)NC(=O)[C@@H](NC(=O)[C@H](CCCCN)NC(=O)[C@@H](NC(=O)[C@H](CC(N)=O)NC(=O)[C@@H](NC(=O)[C@@H](NC(=O)[C@@H](NC(=O)CN)C(C)C)[C@@H](C)CC)[C@@H](C)CC)C(C)C)CSSC[C@@H]2NC(=O)[C@H](CCCCN)NC(=O)CNC(=O)[C@H](Cc3ccccc3)NC(=O)[C@H](CCCNC(=N)N)NC(=O)[C@H](CCSC)NC(=O)CNC(=O)[C@H](C)NC(=O)[C@H](CCCCN)NC(=O)[C@H](CCCCN)NC(=O)[C@@H]3CSSC[C@@H](C(=O)N[C@H](C(=O)N4CCC[C@H]4C(=O)N[C@@H](CCCCN)C(=O)O)[C@@H](C)O)NC(=O)[C@H](Cc4c[nH]cn4)NC(=O)[C@H](CSSC[C@H](NC(=O)[C@H](CCC(N)=O)NC(=O)[C@H](CCCNC(=N)N)NC(=O)[C@H](CO)NC1=O)C(=O)N[C@@H](CC(C)C)C(=O)N[C@@H](CCC(=O)O)C(=O)N1CCC[C@H]1C(=O)N3)NC(=O)[C@H](CCCCN)NC(=O)CNC(=O)[C@H](CC(N)=O)NC(=O)[C@H](C)NC2=O [OSK1[Ala-29]] (H-GVIINVKCKISRQCLEPCKKAGMRFGKCANGKCHCTPK-OH; disulfide 8-28, 14-33, 18-35)
Human Kv1.3 [2]
  inhibition of the Kv1.3 current (in words): potent inhibition of the Kv1.3 current
[3]
  potency in blocking the cytokine response relative to cyclosporin A (in words): several orders of magnitude more potent

## Fc-L10-OSK1[K7S,E16K,K20D]: OSK1-peptibody with triple amino acid substitutions at positions 7, 16 and 20
Human Kv1.3 [4]
  fold less potent than the synthetic OSK1 toxin peptide: approximately 21 fold

## Fc-L10-OSK1[K7S]
Human Kv1.3 [4]
  fold less potent than the synthetic OSK1 toxin peptide: approximately 10 fold

## Fc-L10-ShK[2-35]: human IgG1 Fc fused via L10 linker to ShK[2-35]; peptibody
[1]
  block of thapsigargin-induced IFN-g production in human whole blood (in words): suppressed; also recorded: blocked
[3]
  block of thapsigargin-induced IL-2 production in human whole blood (in words): suppressed; also recorded: potently blocked IL-2 secretion
CD40L on CD4+ T cells
  block of thapsigargin-induced upregulation of CD40L on T cells (in words): blocked
IL-2R on CD4+ T cells
  block of thapsigargin-induced upregulation of the IL-2R on T cells (in words): blocked

## PEG-Fc-L10-OSK1
Human Kv1.3 [4]
  IC50: 0.256 nM and 0.332 nM

## PEG-Fc-L10-SHK(2-35)
Human Kv1.3 [4]
  IC50: 0.175 nM and 0.158 nM

## SEQ ID No: 4989: OSK1 analog without beta strand 1 (labeled des 1-7), Table 42 (CKISRQCLKPCKDAGMRFGKCMNGKCHC-NH2; ends and bridges not checked)
[3]
  blockade of the whole blood cytokine response / inflammation (in words): still retain activity in blocking inflammation

## dendrotoxin-K [DTX-K, reference compound]
CD40L on CD4+ T cells
  block of thapsigargin-induced upregulation of CD40L on T cells (in words): no significant activity
IL-2R on CD4+ T cells
  block of thapsigargin-induced upregulation of the IL-2R on T cells (in words): no significant activity

## iberiotoxin (QFTDVDCSVSKECWSVCKDLFGVDRGKCMGKKCRCYQ; Definition of Artificial Sequence: Synthetic peptide) [IbTx, reference compound]
[1]
  block of thapsigargin-induced IFN-g production in human whole blood (in words): no significant activity
[3]
  block of thapsigargin-induced IL-2 production in human whole blood (in words): no significant activity
CD40L on CD4+ T cells
  block of thapsigargin-induced upregulation of CD40L on T cells (in words): no significant activity
IL-2R on CD4+ T cells
  block of thapsigargin-induced upregulation of the IL-2R on T cells (in words): no significant activity

B1: FcLoop-L4-OsK1-L4: FcLoop OSK1 toxin conjugate as named in b1013 only (protein)
chain: MDKTHTCPPCPAPELLGGPSVFLFPPKPKDTLMISRTPEVTCVVVDVSHEDPEVKFNWYVDGVEVHNAKTKPREEQYNSTYRVVSVLTVLHQDWLNGKEYKCKVSNKALPAPIEKTISKAKGQPREPQVYTLPPSRDELGGGGGVIINVKCKISRQCLEPCKKAGMRFGKCMNGKCHCTPKGGTKNQVSLTCLVKGFYPSDIAVEWESNGQPENNYKTTPPVLDSDGSFFLYSKLTVDKSRWQQGNVFSCSVMHEALHNHYTQKSLSLSPGK
[3]
  blockade of the whole blood cytokine response / inflammation (in words): IC50 values in the pM range

B2: FcLoop-L2-OsK1-L2: OsK1 inserted into the human IgG1 Fc-loop domain with Gly linkers (protein)
chain: MDKTHTCPPCPAPELLGGPSVFLFPPKPKDTLMISRTPEVTCVVVDVSHEDPEVKFNWYVDGVEVHNAKTKPREEQYNSTYRVVSVLTVLHQDWLNGKEYKCKVSNKALPAPIEKTISKAKGQPREPQVYTLPPSRDELGGGVIINVKCKISRQCLEPCKKAGMRFGKCMNGKCHCTPKGGTKNQVSLTCLVKGFYPSDIAVEWESNGQPENNYKTTPPVLDSDGSFFLYSKLTVDKSRWQQGNVFSCSVMHEALHNHYTQKSLSLSPGK
modifications: Definition of Artificial Sequence: Synthetic protein
[3]
  blockade of the whole blood cytokine response / inflammation (in words): IC50 values in the pM range

B3: PEGylated CH2-OSK1: CH2-OSK1 fusion protein mono-PEGylated with 20 kD methoxy-PEG-aldehyde (conjugate)
chain: MGGHHHHHHGGGPSVFLFPPKPKDTLMISRTPEVTCVVVDVSHEDPEVKFNWYVDGVEVHNAKTKPREEQYNSTYRVVSVLTVLHQDWLNGKEYKCKVSNKALPAPIEKTISGGGGSGGGGSGVIINVKCKISRQCLEPCKKAGMRFGKCMNGKCHCTPK
[3]
  blockade of the whole blood cytokine response / inflammation (in words): active in blocking inflammation; also recorded: modest blockade of the whole blood cytokine response

B4: FcLoop-L2-ShK-L2: ShK inserted into the human IgG1 Fc-loop domain with Gly linkers (protein)
chain: MDKTHTCPPCPAPELLGGPSVFLFPPKPKDTLMISRTPEVTCVVVDVSHEDPEVKFNWYVDGVEVHNAKTKPREEQYNSTYRVVSVLTVLHQDWLNGKEYKCKVSNKALPAPIEKTISKAKGQPREPQVYTLPPSRDELGGRSCIDTIPKSRCTAFQCKHSMKYRLSFCRKTCGTCGGTKNQVSLTCLVKGFYPSDIAVEWESNGQPENNYKTTPPVLDSDGSFFLYSKLTVDKSRWQQGNVFSCSVMHEALHNHYTQKSLSLSPGK
modifications: Definition of Artificial Sequence: Synthetic protein
[3]
  blockade of the whole blood cytokine response / inflammation (in words): IC50 values in the pM range
